Experimental findings from US8202910B2 (Sequella, Inc., priority 2006, dated 2012) are described below.

Converted amounts (≈) assume the structure as drawn. Read-outs that look alike come from different tables or passages of the source.

In assay [1] the test system is MDR Strain TN576. Briefly: microbe, parasite or virus in culture. The assay is classed as cell-based, Mycobacterium tuberculosis. The conditions noted are these: for Drug Resistance of MDR Strain: 576 W1; for MIC: Mycobacterium tuberculosis.
The test system of assay [2] is MDR strain TN587. Kind of assay: microbe, parasite or virus in culture. It is filed as cell-based, Mycobacterium tuberculosis. The conditions noted are these: for Drug Resistance of MDR Strain: 587 W; for MIC: Mycobacterium tuberculosis.
For assay [3], the system named is MDR strain TN3086 (3806). Briefly: microbe, parasite or virus in culture. The assay is classed as cell-based, Mycobacterium tuberculosis. The settings on record: for Drug Resistance of MDR Strain: 3806 W1; for MIC: Mycobacterium tuberculosis.
The test system of assay [4] is INH-resistant MTB strain. Kind of assay: microbe, parasite or virus in culture. It is filed as cell-based, M. tuberculosis. The settings on record: Mycobacterium tuberculosis.
The test system of assay [5] is EMB-resistant strain. Briefly: microbe, parasite or virus in culture. The conditions noted are these: Mycobacterium tuberculosis. The assay is classed as cell-based, M. tuberculosis.
Assay [6] deals with M. tuberculosis clinical isolates (drug susceptible and drug resistant). The assay is classed as cell-based. The conditions noted are these: more than 30 clinical isolates.

`NC[C@H]1O[C@H](O[C@H]2[C@H](O)[C@@H](O[C@H]3O[C@H](CO)[C@@H](O)[C@H](N)[C@H]3O)[C@H](N)C[C@@H]2N)[C@H](O)[C@@H](O)[C@@H]1O` [Kan, Kanamycin]: the “Drug Resistance of MDR Strain” value in assay [1], in assay [2] and in assay [3] was “R” in each case.

Regarding `N[C@@H]1CON=C1O` [Cyc, Cycloserine], the “Drug Resistance of MDR Strain” value in assay [1] and in assay [2] was “S” throughout.

On to Capreomycin, for which the “Drug Resistance of MDR Strain” value in assay [1] is reported as “R”; in assay [2], “S”.

For the compound `CCc1cc(C(N)=S)ccn1` [Eth, Ethionamide], the “Drug Resistance of MDR Strain” value is “R” in assay [1], “S” in assay [2] and “S” in assay [3].

Take `CO[C@H]1/C=C/O[C@@]2(C)Oc3c(C)c(O)c4c(O)c(c(/C=N/N5CCN(C)CC5)c(O)c4c3C2=O)NC(=O)/C(C)=C\C=C\[C@H](C)[C@H](O)[C@@H](C)[C@@H](O)[C@@H](C)[C@H](OC(C)=O)[C@@H]1C` [RIF, Rifampicin]: the “Drug Resistance of MDR Strain” value in assay [1], in assay [2] and in assay [3] was “R” each time.

With `[H]/N=C(/N)N[C@H]1[C@H](O)[C@@H](O)[C@H](O[C@@H]2O[C@@H](C)[C@](O)(C=O)[C@H]2O[C@@H]2O[C@@H](CO)[C@H](O)[C@@H](O)[C@@H]2NC)[C@@H](N/C(N)=N\[H])[C@@H]1O` [SM, Streptomycin], the “Drug Resistance of MDR Strain” value in assay [1], in assay [2] and in assay [3] was “R” each time.

Regarding `C[C@@H]1C2C[C@@H](C[C@H]1NCCNC[C@@H]1CCC3C[C@@H]1C3(C)C)C2(C)C` [MP 117], the MIC was 3.15 µg/mL in assay [1] (strain 576); 3.15 µg/mL in assay [2] (TN587, strain 587); 3.15 µg/mL in assay [3] (strain 3806).

`CC(C)=CCC/C(C)=C/CNCCNC1C2CC3CC(C2)CC1C3` (stereo not drawn) [Compound 109, N-Geranyl-N′-(2-adamanthyl)ethane-1,2-diamine]: the MIC was determined as 0.2 µg/mL in assay [1] (strain 576); 0.2 µg/mL in assay [2] (TN587, strain 587); 0.1 µg/mL in assay [3] (strain 3806); 0.25 µg/mL (≈ 0.756 µM) in assay [4]; 0.5 µg/mL (≈ 1.51 µM) in assay [5]. In assay [6], the MIC range was 0.16 to 0.64 mg/L.

As to `CC1(C)C2CCC(CNCCNCC(c3ccccc3)c3ccccc3)[C@@H]1C2` (stereo partly drawn) [RL 241], the MIC in assay [1] (strain 576) was found to be 1.5 µg/mL; in assay [2] (TN587, strain 587), 1.5 µg/mL; in assay [3] (strain 3806), 1.5 µg/mL.

As to `CC1(C)CC2CC(C)(CN2CCNC[C@@H]2CCC3C[C@@H]2C3(C)C)C1` [MP 116], the MIC was 3.15 µg/mL in assay [1] (strain 576); 6.25 µg/mL in assay [2] (TN587, strain 587); 3.15 µg/mL in assay [3] (strain 3806).

Take `CC[C@@H](CO)NCCN[C@@H](CC)CO` [EMB, Ethambutol, reference compound]: the “Drug Resistance of MDR Strain” value in assay [1], in assay [2] and in assay [3] was “R” throughout. In addition, the MIC in assay [1] (read-out: MIC of ethambutol, MDR strain, TN576) was 12.5 to 25 µM; in assay [2] (TN587, read-out: MIC of ethambutol, MDR strain, TN587), 12.5 to 25 µM; in assay [3] (read-out: MIC of ethambutol, MDR strain, TN3086), 12.5 to 25 µM.

As to `NNC(=O)c1ccncc1` [INH, Isoniazid], the “Drug Resistance of MDR Strain” value in assay [1], in assay [2] and in assay [3] was “R” throughout.

Consider `C[C@@H]1[C@H]2C[C@@H](C[C@H]1NCCNC1CCCCCCC1)C2(C)C` [Compound 59, N-(Cyclooctyl)-N′-(1R, 2R, 3R, 5S)-(−)-isopinocampheylethane-1,2-diamine], for which the MIC was 0.1 µg/mL in assay [1] (strain 576); 0.05 µg/mL in assay [2] (TN587, strain 587); 0.05 µg/mL in assay [3] (strain 3806).

Take `O=C(O)c1cn(C2CC2)c2cc(N3CCNCC3)c(F)cc2c1=O` [Cip, Ciprofloxacin]: the “Drug Resistance of MDR Strain” value in assay [1] and in assay [2] was “S” each time.
